System: DENV-2 RL strain
Test: Survival study, lethal DENV challenge with 4G2 antibody
Assay type: in vivo, AG129 mice
Conditions: 2'CMC

C[C@@]1(O)[C@H](O)[C@@H](CO)O[C@H]1n1ccc(N)nc1=O [2'CMC]
% Survival (d p.i. 0): 100% | % Survival (d p.i. 1): 100% | % Survival (d p.i. 2): 100% | % Survival (d p.i. 3): 100% | % Survival (d p.i. 4): 100% | % Survival (d p.i. 5): 100% | % Survival (d p.i. 6): 100% | % Survival (d p.i. 7): 100% | % Survival (d p.i. 8): 100% | % Survival (d p.i. 9): 100% | % Survival (d p.i. 10): 100% | % Survival (d p.i. 11): 100% | % Survival (d p.i. 12): 100% | % Survival (d p.i. 13): 90% | % Survival (d p.i. 14): 80% | % Survival (d p.i. 15): 80% | % Survival (d p.i. 16): 80% | % Survival (d p.i. 17): 80% | % Survival (d p.i. 18): 60% | % Survival (d p.i. 19): 60% | % Survival (d p.i. 20): 60% | % Survival (d p.i. 21): 60% | % Survival (d p.i. 22): 60% | % Survival (d p.i. 23): 60% | % Survival (d p.i. 24): 50% | % Survival (d p.i. 25 = end of study): 50%
